Molecules are shown by their SMILES.

Usually NOAEL stands for the highest dose or exposure tested at which no adverse effect was seen. Broadly, the Km is the concentration of substrate that gives half-maximal velocity.

The subject of one data set is Balb/c 3T3 clone A31. Conditions: BSA levels reflecting in vitro and in vivo situation. The procedure: In vitro concentration–response data obtained with the EST were translated to in vivo dose–response values by applying PBK-based reverse modelling, performed as described by Strikwold et al. ([2013]) with some modifications. […] In vivo albumin and fat levels that are used in the extrapolation rules were adjusted to values that correspond to embryos/foetuses during mid-/late gestation. […] The vitro lipid fraction and albumin levels resembling the situation in the EST were 0.04% and 4.8 mg/ml, respectively (Verwei et al. [2006]).

A short description of data set [1]: In vivo developmental toxicity study, rats exposed at GD11. To be noted: female, rat. An excerpt:
The BMDL05 values of the in vivo study were derived using the BMDS version 2.6.

The next data set can be described thus: in vitro. To be noted: rat, pH 7.4. How it is done:
The formation of glucuronide metabolites of the p-substituted phenols was investigated in incubations with rat liver microsomes. […] To obtain maximum glucuronidation activity, the microsomes were activated by preincubating the incubation mixture with 0.025 mg/ml alamethicin added from a 200 times concentrated stock solution in methanol, during 15 min on ice (Fisher et al. [2000]). Subsequently, the incubations were started after a 1-min preincubation at 37 °C by addition of the substrate from a 200 times concentrated stock solution in DMSO and incubated in a shaking water bath at 37 °C for 45 min. The reactions were terminated by addition of ice-cold acetonitrile (20% v/v). In the blank incubation mixtures, UDPGA was omitted. Samples were analysed by UPLC–PDA (see “Quantification of analytes” section). No reference standards of the glucuronide metabolites were commercially available. […] At first, retention times from the UPLC–PDA chromatograms of the parent compound of the blank incubation were compared with the retention times of newly appearing peaks in chromatograms of the incubation mixtures, as the glucuronide conjugates are expected to elute earlier compared with their parent compounds due do their increased hydrophilicity. […] For this purpose, a volume of 10 µl of the incubation mixture of the glucuronidation assay (that was not terminated by the addition of ice-cold acetonitrile) was added to 90 µl of 200 mM potassium phosphate (pH 6.2). Then, 4 µl of glucuronidase (200 units/ml) was added, and the mixtures were incubated for 60 min in a shaking water bath at 37 °C. The reactions were terminated by addition of ice-cold acetonitrile (20% v/v) and were put on ice. Control samples were treated under the same conditions, but without glucuronidase.
The conditions of the incubation assays were optimised to obtain linear reaction rates with respect to incubation time and protein concentration and non-limiting cofactor levels were applied. […] To obtain maximum glucuronidation activity, the microsomes were activated by preincubating the incubation mixture with 0.025 mg/ml alamethicin added from a 200 times concentrated stock solution in methanol, during 15 min on ice (Fisher et al. [2000]).
Kinetic constants for the glucuronidation of the p-substituted phenols were derived by fitting the data to the standard Michaelis–Menten equation; v=Vmax∗S/Km+[S] in which [S] represents the substrate concentration, V max the maximum velocity and K m the Michaelis–Menten constant for the formation of the glucuronide metabolites. Data analysis was accomplished using GraphPad Prism 5.0 software (GraphPad, San Diego, CA, USA). […] The in vivo K m value was assumed to be the same to the in vitro K m value.
Samples from the BeWo and Caco-2 transport experiments were centrifuged at 13,000 rpm at 5 °C for 15 min. Next 7.5 µl of the supernatant of each sample was analysed by UPLC (Waters Acquity). Samples from the glucuronidation assays were centrifuged at 15,000 rpm at 5 °C for 5 min. […] All samples, except those from transport studies with fluorescein, were analysed on a Waters BEH C18 1.7 µm column, 2.1 × 50 mm, with nanopure water (0.1% TFA) (A) and pure acetonitrile (B) applying a gradient elution. The start condition was 100:0 (A:B), changing to 90:10 from 1 to 2 min, then to 10:90 from 2 to 4 min (or from 2 to 3 min when analysing samples for p-heptyloxyphenylglucuronide), remaining at this ratio for 0.5 min and then rapidly declining to the start condition. The flow rate was 0.6 ml/min.

Another data set relates to ES-D3 cells. Conditions: ref Strikwold et al. [2012]; cited from earlier work.

As for `Oc1ccccc1` [Phenol], in the data set on Balb/c 3T3 clone A31, the “Effect of bovine serum albumin level on in vitro cytotoxicity” value is “not affected”. Besides, the NOAEL in data set [1] is 333 mg/kg.
Turning to `Oc1ccc(F)cc1` [p-Fluorophenol, p-fluorophenol], in “in vitro”, the Km at 10 min turned out to be 314 ± 16 µM. In the data set on ES-D3 cells, the “Potency ratio / difference in BMC50 (phenol / p-substituted phenol) in the EST” value was 1.9 fold.

Source of the values: article PMC5399052, “Integrating in vitro data and physiologically based kinetic (PBK) modelling to assess the in vivo potential developmental toxicity of a series of phenols” (Archives of Toxicology, 2016).
